Reference: paper PMC7226602, “Exploring Biased Agonism at FPR1 as a Means to Encode Danger Sensing” (Cells, 2020)
Where a SMILES comes first, the peptide text is derived from it. Where no end group is shown, it is not given here. The star is where a group is joined. For = O=C*

Experiments:
[1] = target: T1, human FPR1 (Homo sapiens, UniProt P21462); test: cell-based
T1 construct: expressed in transfected cells
T1 sequence (P21462 1-350): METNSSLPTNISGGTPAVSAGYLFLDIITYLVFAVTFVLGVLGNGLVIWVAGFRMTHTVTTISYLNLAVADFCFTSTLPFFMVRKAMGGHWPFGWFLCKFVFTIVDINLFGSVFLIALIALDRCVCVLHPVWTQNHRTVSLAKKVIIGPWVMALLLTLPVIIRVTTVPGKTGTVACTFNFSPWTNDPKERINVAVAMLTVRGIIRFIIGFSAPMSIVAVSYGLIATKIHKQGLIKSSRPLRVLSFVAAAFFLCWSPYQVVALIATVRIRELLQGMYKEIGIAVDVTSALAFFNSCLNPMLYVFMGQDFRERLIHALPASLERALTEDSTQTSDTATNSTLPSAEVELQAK

[2] = target: T1, human FPR1; test: HTRF-based quantification of MAPK/ERK phosphorylation (ERK1/2 Thr202/Tyr204); assay type: cell-based; settings: HeLa-FPR1 cells serum-starved 2 h, agonist 5 min, 37 °C, HTRF phospho-ERK1/2, four-parameter fit, Hill 1, mean and SEM, at least 5 independent measurements; for EC50: read-out: ERK1/2 Activation logEC50 (converted)
[3] = target: T1, human FPR1; test: Flow cytometric analysis of agonist-induced receptor internalization; assay type: cell-based; settings: HeLa-FPR1 cells; for EC50: agonist 15 min, 37 °C, flow cytometry of surface FLAG-FPR1 (M1 antibody), mean and SEM, 6 independent measurements, NR = no response, read-out: Internalization logEC50 (converted)
[4] = solvent DMSO; as indicated by the manufacturer; ref manufacturer; cited from earlier work
[5] = target: human formyl peptide receptor 1 (FPR1), N-terminally FLAG-tagged (human) (UniProt P21462)

Molecule | EC50 [1] | EC50 [2] | EmaxA of inhibition of forskolin-induced cAMP formation, HeLa-FPR1 cells (HTRF, 30 min; normalised to forskolin) (fraction of the maximum system response) [5] | logEC50 of inhibition of forskolin-induced cAMP formation, HeLa-FPR1 cells (HTRF, 30 min) (log M (unit not given)) [5] | also measured
CC[C@H](C)[C@H](NC(=O)[C@H](Cc1ccccc1)NC(=O)[C@H](Cc1c[nH]c2ccccc12)NC(=O)[C@H](C)NC(=O)[C@H](CCC(N)=O)NC(=O)[C@H](CCCCN)NC(=O)[C@H](CC(C)C)NC(=O)[C@H](Cc1ccccc1)NC(=O)[C@H](CCC(=O)O)NC(=O)[C@H](CO)NC(=O)[C@@H](NC(=O)[C@H](CCSC)NC(=O)[C@H](C)NC(C)=O)C(C)C)C(=O)N[C@@H](CCC(=O)O)C(=O)N[C@@H](CC(N)=O)C(=O)N[C@@H](CCC(=O)O)C(=O)N[C@@H](CCC(=O)O)C(=O)N[C@@H](CCC(N)=O)C(=O)N[C@@H](CCC(=O)O)C(=O)N[C@@H](Cc1ccc(O)cc1)C(=O)N[C@H](C(=O)N[C@@H](CCC(N)=O)C(=O)N[C@H](C(=O)N[C@H](C(=O)N[C@@H](CCCCN)C(=O)O)C(C)C)[C@@H](C)O)C(C)C [Ac2-26] (Ac-AMVSEFLKQAWFIENEEQEYVQTVK-OH) | 49000 nM | 74100 nM | – | – | –
CC[C@H](C)[C@H](NC(=O)[C@H](CC(C)C)NC(=O)[C@H](CCCCN)NC(=O)[C@H](CCSC)NC(=O)[C@H](CC(C)C)NC(=O)[C@@H]1CCCN1C(=O)[C@H](CC(N)=O)NC(=O)[C@@H](NC(=O)[C@H](CCCCN)NC(=O)[C@H](CCCNC(=N)N)NC(=O)[C@H](CCSC)NC(=O)[C@@H]1CCCN1C(=O)[C@@H](NC(=O)[C@H](CCSC)NC=O)[C@@H](C)O)[C@@H](C)O)C(=O)N[C@@H](CC(N)=O)C(=O)O [CYTB] (For-MTPMRKTNPLMKLIN-OH) | 3020 nM | 7760 nM | – | – | –
COc1cc(/C=N/NC(=O)c2ccc3c(c2)OCO3)ccc1OCc1ccccc1 [FPRA14] | – | – | – | – | cAMP Formation logEC50 ([1]; HeLa-FPR1 cells, 5 µM forskolin + 500 µM IBMX with agonist, 30 min, 37 °C, HTRF, […], mean and SEM, at least 7 independent measurements): −5.94 0.19; agonist-induced FPR1 internalization (decrease of cell surface-associated FPR1 pool), in words ([3]; 15 min after agonist addition, flow cytometry): did not elicit detectable internalization; Solubility [4]: 100 mM; ERK1/2 Activation logEC50 [2]: −6.06 0.05
CSCC[C@H](NC=O)C(=O)N[C@@H](CC(N)=O)C(=O)N1CCC[C@H]1C(=O)N[C@@H](CC(C)C)C(=O)N[C@@H](C)C(=O)N[C@@H](CCC(N)=O)C(=O)O [MT-ND2] (For-MNPLAQ-OH) | 2040 nM | 6170 nM | – | – | –
CSCC[C@H](NC=O)C(=O)N[C@@H](CCSC)C(=O)N[C@@H](Cc1ccc(O)cc1)C(=O)N[C@@H](C)C(=O)N[C@@H](CC(C)C)C(=O)N[C@@H](Cc1ccccc1)C(=O)O [MT-ND6] (For-MMYALF-OH) | 74.1 nM | 2.19 nM | – | – | EC50 [3]: 776 nM
CC[C@H](C)[C@H](NC(=O)[C@H](CCSC)NC=O)C(=O)N[C@H](C(=O)N[C@H](C(=O)N[C@@H](CC(C)C)C(=O)O)[C@@H](C)CC)C(C)C [fMIVIL] (For-MIVIL-OH) | 0.871 nM | 1.55 nM | – | – | EC50 [3]: 79.4 nM
CSCC[C@H](NC=O)C(=O)N[C@@H](CC(C)C)C(=O)N[C@@H](Cc1ccccc1)C(=O)O [fMLF, formyl-methionyl-leucyl-phenylalanine] | – | – | – | – | Solubility [4]: 4000 µg/mL
CC(C)C[C@H](NC(=O)CN)C(=O)N[C@@H](CC(C)C)C(=O)N[C@@H](Cc1c[nH]c2ccccc12)C(=O)N[C@H](C(=O)N[C@@H](CCC(=O)O)C(=O)N[C@H](C(=O)NCC(=O)NCC(=O)N[C@@H](CCC(=O)O)C(=O)NCC(=O)N1CCC[C@H]1C(=O)NCC(=O)N1CCC[C@H]1C(=O)N[C@H](C(=O)O)[C@@H](C)O)C(C)C)C(C)C [gG2p20] (H-GLLWVEVGGEGPGPT-OH) | – | 708 nM | – | – | EC50 ([1]; HeLa-FPR1 cells, 5 µM forskolin + 500 µM IBMX with agonist, 30 min, 37 °C, HTRF, […], mean and SEM, at least 7 independent measurements, read-out: cAMP Formation logEC50 (converted)): 437 nM; Solubility [4]: 2000 µg/mL
For-MMYALF | – | – | 0.66 | -7.13 | EmaxA of agonist-induced FPR1 internalization, HeLa-FPR1 cells (flow cytometry, 15 min; normalised to 10^-4 M W-peptide) (fraction of the maximum system response) [5]: 0.63; logEC50 of agonist-induced FPR1 internalization, HeLa-FPR1 cells (flow cytometry, 15 min) (log M (unit not given)) [5]: -6.11
For-MNPLAQ | – | – | 0.63 | -5.69 | –
For-MTPMRKTNPLMKLIN [formylated peptide corresponding to the N-terminus of human cytochrome b (CYTB; f…)] | – | – | 0.39 | -5.52 | –
WKYMVM [synthetic agonist W-peptide (WKYMVm)] | – | – | 0.82 | -8.96 | EmaxA of agonist-induced FPR1 internalization, HeLa-FPR1 cells (flow cytometry, 15 min; normalised to 10^-4 M W-peptide) (fraction of the maximum system response) [5]: 1; logEC50 of agonist-induced FPR1 internalization, HeLa-FPR1 cells (flow cytometry, 15 min) (log M (unit not given)) [5]: -7.66
GLLWVEVGGEGPGPT (not fully specified) [gG-2p20 peptide derived from the secreted glycoprotein sgG-2 of herpes simplex virus type 2 (HSV-2)] | – | – | 0.68 | -6.36 | –
For-MIVIL [formylated pentapeptide fMIVIL from Listeria monocytogenes] | – | – | 0.82 | -9.06 | EmaxA of agonist-induced FPR1 internalization, HeLa-FPR1 cells (flow cytometry, 15 min; normalised to 10^-4 M W-peptide) (fraction of the maximum system response) [5]: 0.97; logEC50 of agonist-induced FPR1 internalization, HeLa-FPR1 cells (flow cytometry, 15 min) (log M (unit not given)) [5]: -7.1
Ac-AMVSEFLKQAWFIENEEQEYVQTVK [acetylated peptide Ac2-26 corresponding to the N-terminus of human annexin A1] | – | – | 0.63 | -4.31 | –
